Biological target: Btk (Homo sapiens, UniProt Q06187)
Assay: Btk in vitro inhibitory activity, acellular TR-FRET kinase assay; further: 1 µM peptide substrate
Assay type: biochemical
Details: read-out: Btk IC50 (Efficacy)
Procedure: Btk kinase activity was determined using a time-resolved fluorescence resonance energy transfer (TR-FRET) methodology. Measurements were performed in a reaction volume of 50 μL using 96-well assay plates. […] The TR-FRET signal was measured on a multimode plate reader with an excitation wavelength (λEx) of 330 nm and detection wavelengths (λEm) of 615 and 665 nm. Activity was determined by the ratio of the fluorescence at 665 nm to that at 615 nm. For each compound, enzyme activity was measured at various concentrations of compound. Negative control reactions were performed in the absence of inhibitor in replicates of six, and two no-enzyme controls were used to determine baseline fluorescence levels. IC50s were obtained using the program Batch Ki (Kuzmic et al. (2000), Anal. Biochem. 286:45-50).

Btk, sequence (Q06187 whole entry): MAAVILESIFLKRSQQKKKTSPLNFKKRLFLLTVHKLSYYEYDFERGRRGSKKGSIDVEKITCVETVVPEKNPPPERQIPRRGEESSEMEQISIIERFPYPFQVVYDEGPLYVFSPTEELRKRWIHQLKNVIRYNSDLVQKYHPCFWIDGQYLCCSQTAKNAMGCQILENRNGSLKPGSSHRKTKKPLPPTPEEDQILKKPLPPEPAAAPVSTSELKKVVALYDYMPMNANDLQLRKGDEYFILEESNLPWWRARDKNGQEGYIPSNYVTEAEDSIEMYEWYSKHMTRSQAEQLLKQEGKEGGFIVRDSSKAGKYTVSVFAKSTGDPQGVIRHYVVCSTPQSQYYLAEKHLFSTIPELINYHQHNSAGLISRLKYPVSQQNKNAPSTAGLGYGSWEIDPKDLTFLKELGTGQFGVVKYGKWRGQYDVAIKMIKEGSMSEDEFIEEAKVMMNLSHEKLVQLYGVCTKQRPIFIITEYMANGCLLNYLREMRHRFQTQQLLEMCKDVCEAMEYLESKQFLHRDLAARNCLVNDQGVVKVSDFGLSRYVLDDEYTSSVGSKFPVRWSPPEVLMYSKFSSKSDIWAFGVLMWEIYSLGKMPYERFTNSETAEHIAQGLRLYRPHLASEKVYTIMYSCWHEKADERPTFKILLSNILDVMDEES

IC50 [nM]	Compound
< 100	Cc1ccc(NC(=O)c2ccc3ccccc3c2)cc1C(=O)Nc1cnc(Nc2cccc(N)c2)nc1 [Example 23]
< 100	C=CC(=O)Nc1cccc(Nc2ncc(NC(=O)c3cc(NC(=O)c4cccc(F)c4)ccc3C)cn2)c1 [Example 16]
< 100	C=CC(=O)Nc1cccc(Nc2ncc(NC(=O)c3cc(NC(=O)c4cccc(C(F)(F)F)c4)ccc3F)cn2)c1 [Example 7]
100 to 1000	Cc1ccc(NC(=O)/C=C/c2ccccc2)cc1C(=O)Nc1cnc(Nc2cccc(N)c2)nc1 [Example 37]
< 100	Nc1cccc(Nc2ncc(NC(=O)c3cc(NC(=O)c4cccc(C(F)(F)F)c4)ccc3F)cn2)c1 [Example 34]
< 100	Cc1ccc(NC(=O)c2cccc(N(C)C)c2)cc1C(=O)Nc1cnc(Nc2cccc(N)c2)nc1 [Example 30]
100 to 1000	C=CC(=O)Nc1cccc(Nc2ncc(NC(=O)c3cc(NC(=O)C4CC4)ccc3C)cn2)c1 [Example 19]
< 100	C=CS(=O)(=O)Nc1cccc(Nc2ncc(NC(=O)c3cc(NC(=O)c4cccc(C(F)(F)F)c4)ccc3C)cn2)c1 [Example 3]
100 to 1000	C=CC(=O)Nc1cccc(Nc2ncc(NC(=O)c3cc(NC(=O)CC)ccc3C)cn2)c1 [Example 10]
< 100	C=CC(=O)Nc1cccc(Nc2ncc(NC(=O)c3cc(NC(=O)c4ccc5c(c4)OC(F)(F)O5)ccc3C)cn2)c1 [Example 13]
< 100	C=CC(=O)Nc1cccc(Nc2ncc(NC(=O)c3cc(NC(=O)c4cccc(C(F)(F)F)c4)ccc3Cl)cn2)c1 [Example 6]
< 100	Cc1ccc(NC(=O)c2cccc(Cl)c2)cc1C(=O)Nc1cnc(Nc2cccc(N)c2)nc1 [Example 27]
< 100	Nc1cccc(Nc2ncc(NC(=O)c3cc(NC(=O)c4cccc(C(F)(F)F)c4)ccc3Cl)cn2)c1 [Example 33]
< 100	C=CC(=O)Nc1cccc(Nc2ncc(NC(=O)c3cc(NC(=O)c4ccc5ccccc5c4)ccc3C)cn2)c1 [Example 11]
< 100	COc1cc(OC)cc(C(=O)Nc2ccc(C)c(C(=O)Nc3cnc(Nc4cccc(N)c4)nc3)c2)c1 [Example 24]
< 100	C=CC(=O)Nc1cccc(Nc2ncc(NC(=O)c3cc(NC(=O)c4ccc(C(F)(F)F)cc4)ccc3C)cn2)c1 [Example 14]
100 to 1000	C=CC(=O)N(C(=O)C=C)c1cccc(Nc2ncc(NC(=O)c3cc(NC(=O)c4cccc(C(F)(F)F)c4)ccc3C)cn2)c1 [Example 5]
< 100	C=CC(=O)Nc1cccc(Nc2ncc(NC(=O)c3cccc(NC(=O)c4cccc(C(F)(F)F)c4)c3)cn2)c1 [Example 8]

IC50 [nM]	Compound
< 100	Cc1ccc(NC(=O)Nc2cccc(C(F)(F)F)c2)cc1C(=O)Nc1cnc(Nc2cccc(N)c2)nc1 [Example 35]
< 100	C=CC(=O)Nc1cccc(Nc2ncc(NC(=O)c3cc(NC(=O)c4cccc(Cl)c4)ccc3C)cn2)c1 [Example 15]
< 100	C/C=C/C(=O)Nc1cccc(Nc2ncc(NC(=O)c3cc(NC(=O)c4cccc(C(F)(F)F)c4)ccc3C)cn2)c1 [Example 2]
100 to 1000	Cc1ccc(NC(=O)c2cnoc2C)cc1C(=O)Nc1cnc(Nc2cccc(N)c2)nc1 [Example 29]
< 100	C=CC(=O)Nc1cccc(Nc2ncc(NC(=O)c3cc(NC(=O)c4cccc(N(C)C)c4)ccc3C)cn2)c1 [Example 18]
1000 to 10000	CCC(=O)Nc1ccc(C)c(C(=O)Nc2cnc(Nc3cccc(N)c3)nc2)c1 [Example 22]
100 to 1000	C=CC(=O)Nc1cccc(Nc2ncc(NC(=O)c3cc(NC(=O)c4cnoc4C)ccc3C)cn2)c1 [Example 17]
< 100	Cc1ccc(NC(=O)c2cccc(C(F)(F)F)c2)cc1C(=O)Nc1cnc(Nc2cccc(N)c2)nc1 [Example 20]
< 100	Cc1ccc(NC(=O)c2ccc(C(F)(F)F)cc2)cc1C(=O)Nc1cnc(Nc2cccc(N)c2)nc1 [Example 26]
< 100	Cc1ccc(NC(=O)c2cc(Cl)cc(C(F)(F)F)c2)cc1C(=O)Nc1cnc(Nc2cccc(N)c2)nc1 [Example 21]
1000 to 10000	Cc1ccc(NC(=O)C2CC2)cc1C(=O)Nc1cnc(Nc2cccc(N)c2)nc1 [Example 31]
100 to 1000	Nc1cccc(Nc2ncc(NC(=O)c3cccc(NC(=O)c4cccc(C(F)(F)F)c4)c3)cn2)c1 [Example 32]
< 100	C=CC(=O)Nc1cccc(Nc2ncc(NC(=O)c3ccccc3C)cn2)c1 [Example 9]
< 100	C=CC(=O)Nc1cccc(Nc2ncc(NC(=O)c3cc(NC(=O)c4cc(OC)cc(OC)c4)ccc3C)cn2)c1 [Example 12]
< 100	C=CC(=O)NCC(=O)Nc1cccc(Nc2ncc(NC(=O)c3cc(NC(=O)c4cccc(C(F)(F)F)c4)ccc3C)cn2)c1 [Example 4]
100 to 1000	Cc1ccc(NC(=O)c2cccc(F)c2)cc1C(=O)Nc1cnc(Nc2cccc(N)c2)nc1 [Example 28]
< 100	Cc1ccc(NC(=O)c2ccc3c(c2)OC(F)(F)O3)cc1C(=O)Nc1cnc(Nc2cccc(N)c2)nc1 [Example 25]

System: rat basophilic leukemia cells (RBL-2H3)
Assay: not given
Details: mast cells treated with Btk inhibitor; cited from earlier work

Compound	release of histamine reduced
C/C(O)=C(\C#N)C(=O)Nc1cc(Br)ccc1Br [LFM-A13]	20-25%

From patent publication US9782406B2, “Kinase inhibitor and method for treatment of related diseases” (PEKING UNIVERSITY SHENZHEN GRADUATE SCHOOL, priority 2011, dated 2017)
